# Laboratory results taken from US20030083292A1, “Inhibitors of DNA methyltransferase isoforms” (priority 2001, published 2003).
# How the values were obtained:
# [1] = test system: A549 human non small cell lung cancer cells; test: Apoptosis, Cell Death Detection ELISA Plus, A549 cells; type: cell-based
# Experimental: (§1) In order to determine the effects of DNMT3a and DNMT3b inhibition on apoptosis of cancer cells, various cancer cell lines (A549 or T24 cells, MDAmb231) were exposed to the DNMT3a and DNMT3b AS-ODN for various periods of time and the effects on apoptosis were determined. For the analysis of apoptosis (active cell death), cells were analyzed using the Cell Death Detection ELISA ^Plus kit (Roche Diagnostic GmBH, Mannheim, Germany) according to the manufacturer's directions. Typically, 10,000 cells were plated in 96-well tissue culture dishes for 2 hours before harvest and lysis. Each sample was analyzed in duplicate. ELISA reading was done using a MR700 plate reader (DYNEX Technology, Ashford, Middlesex, England) at 410 nm. The reference was set at 490 nm.
# [2] = test system: DNMT1 mRNA; test: Northern blot, non target mRNA DNMT1; type: cell-based, human; details: A549 cells
# [3] = test system: MRHF (foreskin fibroblasts); test: Apoptosis in normal cells, MRHF; type: cell-based, human; details: 75 nM, 48 hrs
# Experimental: as §1
# (§2) The effect of DNMT3b inhibition on the induction of apoptosis in normal cells was also determined, the results of which are presented in FIG. 10. HMEC (human mammary epithelial cells, ATCC, Manassas, Va.) and MRHF (foreskin fibroblasts, ATCC, Manassas, Va.) were treated with 75 nM of DNMT3b AS (SEQ ID NO: 18) or its mismatch control SEQ ID NO: 19 for 48 hrs as previously described for human cancer cells.
# [4] = test system: DNMT3b protein; test: Western blot of DNMT3b protein level; type: cell-based, human; details: 0-75 nM, 48 hrs
# Experimental: In order to determine whether treatment with DNMT3a or DNMT3b AS-ODNs would inhibit expression at the protein level, antibodies specific for either DNMT3a or DNMT3b were produced for use in western blots. DNMT3b is expressed at sufficiently high levels in human cancer cells to be detected by our DNMT3b antibody. However, DNMT3a is not expressed at detectable levels. Therefore, both human A549 non small cell lung cancer cells and T24 human bladder cancer cells were treated with doses of the DNMT3b antisense inhibitor (SEQ ID NO: 18) ranging from 0-75 nM for 48 hours and then measured DNMT3b protein levels by Western blot.
# Briefly, cells were lysed in buffer containing 1% Triton X-100, 0.5% sodium deoxycholate, 5 mM EDTA, 25 mM Tris-HC1, pH 7.5, plus protease inhibitors. Total protein was quantified by the protein assay reagent from Bio-Rad (Hercules, Calif.). 100 ug of total protein was analyzed by SDS-PAGE. Next, total protein was transferred onto a PVDF membrane and probed with DNMT3b specific antibody. Anti-DNMT3b antibody was raised by immunizing rabbits with a GST fusion protein containing a fragment of the DNMT3b protein (amino acids 4-101 of GenBank Accession No. NM_006892). Rabbit antiserum was tested and found only to react specifically to the human DNMT3b isoform. DNMT3b antiserum was used at 1:500 dilution in Western blots to detect DNA MeTase-6 in total cell lysates. Horse Radish Peroxidase conjugated secondary antibody was used at a dilution of 1:5000 to detect primary antibody binding. The secondary antibody binding was visualized by use of the Enhanced chemiluminescence (ECL) detection kit (Amersham-Pharmacia Biotech., Inc., Piscataway, N.J.).
# [5] = test system: DNMT3a mRNA; test: Northern blot of DNMT3a mRNA expression after antisense treatment; type: cell-based, human; details: A549 cells
# Experimental: (§3) To identify antisense oligodeoxynucleotide (ODN) capable of inhibiting DNMT3a or DNMT3b expression in human cancer cells, antisense oligonucleotides were initially screened in T24 (human blader) A549 (human non small cell lung cancers cells at 100 nM. Cells were harvested after 24 hours of treatment, and DNMT3a or DNMT3b RNA expression was analyzed by Northern blot analysis.
# (§4) Active oligonucleotides identified in initial screens were then synthesized with phosporothiate backbone modification and 2′-O-methyl modifications of the sugar on the four 5′ and 3′ nucleotides. […] Human A549 or T24 cells were treated with increasing doses of antisense (AS) oligonucleotide from 0-75 nM for 24 hours.
# Briefly, human A549 or T24 human bladder carcinoma cells were seeded in 10 cm tissue culture dishes one day prior to oligonucleotide treatment. The cell lines were obtained from the American Type Culture Collection (ATCC) (Manassas, Va.) and were grown under the recommended culture conditions. Before the addition of the oligonucleotides, cells were washed with PBS (phosphate buffered saline). Next, lipofectin transfection reagent (GIBCO BRL Mississauga, Ontario, Calif.), at a concentration of 6.25 μg/ml, was added to serum free OPTIMEM medium (GIBCO BRL, Rockville, Md.), which was then added to the cells. […]
# Cells were harvested, and total RNAs were analyzed by Northern blot analysis. […]
# [6] = test system: DNMT3b mRNA; test: Northern blot of DNMT3b mRNA expression after antisense treatment; type: cell-based, human; details: A549 cells
# Experimental: as §3, §4
# (§5) Briefly, human A549 or T24 human bladder carcinoma cells were seeded in 10 cm tissue culture dishes one day prior to oligonucleotide treatment. The cell lines were obtained from the American Type Culture Collection (ATCC) (Manassas, Va.) and were grown under the recommended culture conditions. Before the addition of the oligonucleotides, cells were washed with PBS (phosphate buffered saline). Next, lipofectin transfection reagent (GIBCO BRL Mississauga, Ontario, Calif.), at a concentration of 6.25 μg/ml, was added to serum free OPTIMEM medium (GIBCO BRL, Rockville, Md.), which was then added to the cells. The oligonucleotides to be screened were then added directly to the cells (i.e., one oligonucleotide per plate of cells).
# Cells were harvested, and total RNAs were analyzed by Northern blot analysis. Briefly, total RNA was extracted using RNeasy miniprep columns (QIAGEN). Ten to twenty μg of total RNA was run on a formaldehyde-containing 1% agarose gel with 0.5 M sodium phosphate (pH 7.0) as the buffer system. RNAs were then transferred to nitrocellulose membranes and hybridized with the radiolabelled DNA probes specific for DNMT3a or DNMT3b messenger RNA. Autoradiography was performed using conventional procedures.
# [7] = test system: Glyceraldehyde 3′-phosphate dehydrogenase mRNA; test: Northern blot, non target mRNA Glyceraldehyde 3′-phosphate dehydrogenase; type: cell-based, human; details: A549 cells
# Experimental: as §4, §5
# Cells were harvested, and total RNAs were analyzed by Northern blot analysis. Briefly, total RNA was extracted using RNeasy miniprep columns (QIAGEN). Ten to twenty μg of total RNA was run on a formaldehyde-containing 1% agarose gel with 0.5 M sodium phosphate (pH 7.0) as the buffer system. […]
# [8] = test system: HMEC (human mammary epithelial cells); test: Apoptosis in normal cells, HMEC; type: cell-based; details: 75 nM, 48 hrs
# Experimental: as §1, §2
Substance,apoptosis [1],expression of non target mRNA DNMT1 [2],apoptosis [3],level of DNMT3b protein ([4]; A549 human non small cell lung cancer cells),"level of DNMT3b protein ([4]; A549 human non small cell lung cancer cells, listed as MG3741)",level of DNMT3b protein ([4]; T24 human bladder cancer cells),"level of DNMT3b protein ([4]; T24 human bladder cancer cells, listed as MG3741)",expression of DNMT3a mRNA [5],expression of DNMT3b mRNA [6],"IC50 ([6]; 0-75 nM, 24 hours, read-out: estimated IC50 value, inhibition of DNMT3b expression) [nM]",expression of non target mRNA Glyceraldehyde 3′-phosphate dehydrogenase [7],apoptosis [8]
"SEQ ID NO: 18: DNMT3B AS, 3′UTR (3993), PTI, 5′cgtcgtggctccagttacaa3′ (antisense CGTCGTGGCTCCAGTTACAA; DNA, all phosphorothioate, methylation of C not given here)",induced apotosis,not effected,no apoptosis,dose dependent effect,inhibits,dose dependent effect,inhibits,not effected,dose dependent inhibition,~25,not effected,no apoptosis
"SEQ ID NO: 33: DNMT3A AS, 3′UTR (4045), PTI, 5′cgtgagaacgcgccatctgc3′ (antisense CGTGAGAACGCGCCATCTGC; DNA, all phosphorothioate, methylation of C not given here)",–,not effected,–,–,–,–,–,dose dependent effect,not effected,–,not effected,–
